13 compounds from patent US20250304563A1, “ACTIVATORS OF EFFECTOR T CELLS” (Orum Therapeutics, Inc., priority 2022, published 2025) can be followed below.

For orientation: pIC50 means −log10 of the IC50, conventionally taken in molar units. A higher pIC50 goes with a low IC50.

pIC50: −log10 of the molar value.

Test [1] has as its target Cbl-b (36-427 aa truncated form, N-terminus Avi-tag) (Homo sapiens (Human), UniProt Q13191). The test can be described thus: Cbl-b binding: TR-FRET displacement of BODIPY-FL probe. Here is the method: Compounds were assessed for binding activity to Cbl-b by their ability to compete with and displace a probe comprised of BODIPY-FL fluorophore conjugated to a Cbl-b inhibitor (see Example 54 in WO2020264398). In the assay, a 36-427 aa truncated form of Cbl-b with an N-terminus Avi-tag was incubated 20 mM HEPES pH 7.5, 150 mM NaCl, 0.01% Triton X-100, 0.1% BSA, 0.5 mM TCEP buffer with streptavidin-terbium (Cisbio). After one hour of incubation at room temperature, 1 uM each of fluorescent probe and compound were combined with the reaction mixture. Compounds with Cbl-b binding activity competitively displace the fluorophore tagged inhibitor thereby disrupting the FRET signal from the terbium-BODIPY-FL complex. The reaction mixtures were incubated for one additional hour at room temperature to allow for competition between inhibitor and candidate compounds to occur. The time resolved FRET (TR-FRET) signal was then read at 520/620 […] (excitation/emission) using a Spectramax M5e plate reader (Molecular Devices) to measure probe displacement. Compounds with Cbl-b binding activity had decreased FRET signal owing to disruption of the terbium-BODIPY-FL FRET complex. Standard methods in PRISM were used to calculate the compound IC50 values from the experimental data.
For orientation: Time-resolved FRET reads energy transfer from a long-lived donor to a nearby acceptor.

For test [2], the system named is Human primary T cells. The test is described as follows: T cell activation: CD69 surface expression by flow cytometry. Format: cell-based. The following applies: fold over anti-CD3 stimulated background normalized to Compound 141A. Here is the method:
(§1) Human primary T cells were isolated from commercially available frozen peripheral blood mononuclear cells (HemaCare Corporation) or from fresh LeukoPaks (Research Blood Components). T cells were isolated through depletion of non-T cells using negative selection kit according to the manufacturer's protocol (Miltenyi Biotec, Human Pan T Cell Isolation Kit, 130-096-535). Isolated cells were cultured overnight at 37° C. with 5% CO2 and plated at 1×10^5 cells per well in XVivo-15 serum-free media (Lonza, 04-418Q) into 96 well plates coated with anti-CD3 (OKT3) antibody (ThermoFisher, 16-0037-85). To coat the plates for T cell capture, anti-CD3 antibody was diluted in PBS at 10 μg/mL and 100 μl added to each well. Plates were incubated at 4° C. overnight or at 37° C. for 2 hours and washed once with PBS before use. Serial dilutions of each compound were added in duplicates to the T cells to assess their effect on T cell activation. T cells treated with 5 μg/mL of CD28 antibody (ThermoFisher, 16-0289-85) or T cells stimulated by CD3 only were used as a control. Plates were incubated with the Cbl-b inhibitors for 48 hours at 37° C. with 5% CO2, and supernatants were subsequently analyzed for levels of the activation induced secreted cytokines IL-2 or IFN-y (BD Biosciences CBA Flex Beads, 558269, 558270). T cells were additionally stained with anti-CD69 antibody (Invitrogen, 12-0699-42 which labels a T cell activation associated membrane protein to and surface expression was measured by flow cytometry (ThermoFisher Attune NxT).
(§2) To control for natural inter-donor variability in T cell responses intrinsic to using primary human donor derived cells, secreted IL-2 and IFN-y measurements for each test compound were reported as the fold increase of the compound treated levels over background (antiCD3/CD28 treatment only) normalized to the values obtained for Compound 141A. Results for compound treatment-induced changes in CD69 levels are similarly reported as the fold increase due to compound treatment over anti-CD3 stimulated background only, normalized to values obtained for Compound 141A.
Similarly, bins for normalized CD69 levels were sorted into ranges as follows: fold over background values between 1.11 and 1.6: range “X”, values between 0.81 and 1.10: range “A”; values between 0.61 and 0.80: range “B;” values between 0.30 and 0.60: range “C”.
(A flow cytometer gives signals particle by particle.)

For test [3], the system named is Human primary T cells. The test is described as follows: T cell activation: secreted IL-2. Format: cell-based. The following applies: 48 hours, fold over background normalized to Compound 141A. Here is the method: as §1, §2
Normalized T cell IL-2 responses were sorted into ranges as follows: fold over background values between 1.41 and 1.8: range “X”, between 0.80 and 1.40: range “A”, values between 0.31 and 0.79: range “B” values between 0.10 and 0.30: range “C”, values between 0.01 and 0.09: range “D.”

Test [4] concerns Human primary T cells. The test can be described thus: T cell activation: secreted IFN-y. It is filed as cell-based. To be noted: 48 hours, fold over background normalized to Compound 141A. Here is the method: as §1, §2
Normalized T cell IFN-y responses were sorted into ranges as follows: fold over background between 1.10 and 2.00: range “A”, values between 0.31 and 1.00: range “B;” values between 0.10 and 0.30: range “C”, and values between 0.01 and 0.09: range “D.”

Sequence of Cbl-b (36-427 aa truncated form, N-terminus Avi-tag) (Q13191 36-427): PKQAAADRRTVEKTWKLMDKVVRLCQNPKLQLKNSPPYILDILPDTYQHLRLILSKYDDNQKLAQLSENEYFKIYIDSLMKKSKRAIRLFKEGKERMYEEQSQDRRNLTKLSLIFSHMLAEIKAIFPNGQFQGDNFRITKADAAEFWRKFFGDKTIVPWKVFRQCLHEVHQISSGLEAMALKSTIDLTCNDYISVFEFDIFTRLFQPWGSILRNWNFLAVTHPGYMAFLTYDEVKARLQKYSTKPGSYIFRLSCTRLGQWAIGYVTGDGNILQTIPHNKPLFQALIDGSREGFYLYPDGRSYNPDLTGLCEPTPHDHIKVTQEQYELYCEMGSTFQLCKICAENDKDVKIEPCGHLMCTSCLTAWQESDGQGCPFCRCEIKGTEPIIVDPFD

In turn, `CNCC(=O)Nc1cc(C2(Cc3nncn3C)COC2)cc(N2Cc3c(cc(CN4CCC[C@H](C)C4)cc3C(F)(F)F)C2=O)n1` [Compound 101, N-(4-{3-[(4-methyl-1,2,4-triazol-3-yl)methyl]oxetan-3-yl}-6-(6-{[(3S)-3-methylpiperidin-1-yl]methyl}-1-oxo-4-(trifluoromethyl)-3H-isoindol-2-yl)pyridin-2-yl)-2-(methylamino)acetamide; formic acid] gave a pIC50 in test [1] of 7.70 to 8.30. In test [1], `CNCc1cc(C2(Cc3nncn3C)COC2)cc(N2Cc3c(cc(CN4CCC[C@H](C)C4)cc3C(F)(F)F)C2=O)n1` [Compound 104, 2-(4-{3-[(4-methyl-1,2,4-triazol-3-yl)methyl]oxetan-3-yl}-6-[(methylamino)methyl]pyridin-2-yl)-6-{[(3S)-3-methylpiperidin-1-yl]methyl}-4-(trifluoromethyl)-3H-isoindol-1-one; trifluoroacetic acid] gave a pIC50 of 6.00 to 7.00. Still for that read-out and setting: next, `CSC(C)(C)CNc1cc(C2(Cc3nncn3C)COC2)cc(N2Cc3c(cc(CN4CCC[C@H](C)C4)cc3C(F)(F)F)C2=O)n1` [Compound 105, 2-(4-{3-[(4-methyl-1,2,4-triazol-3-yl)methyl]oxetan-3-yl}-6-{[2-methyl-2-(methylsulfanyl)propyl]amino}pyridin-2-yl)-6-{[(3S)-3-methylpiperidin-1-yl]methyl}-4-(trifluoromethyl)-3H-isoindol-1-one; formic acid]: 6.00 to 7.00; `C[C@H]1CCCN(Cc2cc3c(c(C(F)(F)F)c2)CN(c2cc(C4(Cc5nncn5C)COC4)cc(NCCS)n2)C3=O)C1` [Compound 108, 2-(4-{3-[(4-methyl-1,2,4-triazol-3-yl)methyl]oxetan-3-yl}-6-[(2-sulfanylethyl)amino]pyridin-2-yl)-6-{[(3S)-3-methylpiperidin-1-yl]methyl}-4-(trifluoromethyl)-3H-isoindol-1-one]: 8.30 to 9.00; `C#CCNc1cc(C2(Cc3nncn3C)COC2)cc(N2Cc3c(cc(CN4CCC[C@H](C)C4)cc3C(F)(F)F)C2=O)n1` [Compound 109, (S)-2-(4-(3-((4-methyl-4H-1,2,4-triazol-3-yl)methyl)oxetan-3-yl)-6-(prop-2-yn-1-ylamino)pyridin-2-yl)-6-((3-methylpiperidin-1-yl)methyl)-4-(trifluoromethyl)isoindolin-1-one]: 6.00 to 7.00.

The compound `CCNc1cc([C@]2(c3nncn3C)C[C@@H](C)C2)nc(N2Cc3c(cc(CN4CCC[C@H](C)C4)cc3C(F)(F)F)C2=O)n1` [Compound 114A, 2-[4-(ethylamino)-6-[(1s,3R)-3-methyl-1-(4-methyl-1,2,4-triazol-3-yl)cyclobutyl]pyrimidin-2-yl]-6-{[(3S)-3-methylpiperidin-1-yl]methyl}-4-(trifluoromethyl)-3H-isoindol-1-one] showed a negative logarithm of the IC50 (pIC50) in test [1] of 6.00 to 7.00. Same read-out and setting: in the case of `CCNc1cc([C@]2(c3nncn3C)C[C@H](C)C2)nc(N2Cc3c(cc(CN4CCC[C@H](C)C4)cc3C(F)(F)F)C2=O)n1` [Compound 114B, 2-[4-(ethylamino)-6-[(1r,3S)-3-methyl-1-(4-methyl-1,2,4-triazol-3-yl)cyclobutyl]pyrimidin-2-yl]-6-{[(3S)-3-methylpiperidin-1-yl]methyl}-4-(trifluoromethyl)-3H-isoindol-1-one] it was 6.00 to 7.00; in that of `C#CCN1CCN(c2cc(C3(Cc4nncn4C)COC3)cc(N3Cc4c(cc(CN5CCC[C@H](C)C5)cc4C(F)(F)F)C3=O)n2)CC1` [Compound 127, (S)-2-(4-(3-((4-methyl-4H-1,2,4-triazol-3-yl)methyl)oxetan-3-yl)-6-(4-(prop-2-yn-1-yl)piperazin-1-yl)pyridin-2-yl)-6-((3-methylpiperidin-1-yl)methyl)-4-(trifluoromethyl)isoindolin-1-one], 7.00 to 7.70. On the same count and under the same terms, next, `C[C@H]1CCCN(Cc2cc3c(c(C(F)(F)F)c2)CN(c2cc(C4(Cc5nncn5C)COC4)cc(N4CCN(CC#N)CC4)n2)C3=O)C1` [Compound 128, (S)-2-(4-(4-(3-((4-methyl-4H-1,2,4-triazol-3-yl)methyl)oxetan-3-yl)-6-(6-((3-methylpiperidin-1-yl)methyl)-1-oxo-4-(trifluoromethyl)isoindolin-2-yl)pyridin-2-yl)piperazin-1-yl)acetonitrile]: 7.00 to 7.70; `Cc1cn(CCNc2cc(C3(Cc4nncn4C)COC3)cc(N3Cc4c(cc(CN5CCC[C@H](C)C5)cc4C(F)(F)F)C3=O)n2)nn1` [Compound 129, (S)-2-(6-((2-(4-methyl-1H-1,2,3-triazol-1-yl)ethyl)amino)-4-(3-((4-methyl-4H-1,2,4-triazol-3-yl)methyl)oxetan-3-yl)pyridin-2-yl)-6-((3-methylpiperidin-1-yl)methyl)-4-(trifluoromethyl)isoindolin-1-one]: 7.00 to 7.70. In test [1], `C[C@H]1CCCN(Cc2cc3c(c(C(F)(F)F)c2)CN(c2cc(C4(Cc5nncn5C)COC4)cc(N4CCN(C(=O)Cc5nnn[nH]5)CC4)n2)C3=O)C1` [Compound 131, (S)-2-(6-(4-(2-(1H-tetrazol-5-yl)acetyl)piperazin-1-yl)-4-(3-((4-methyl-4H-1,2,4-triazol-3-yl)methyl)oxetan-3-yl)pyridin-2-yl)-6-((3-methylpiperidin-1-yl)methyl)-4-(trifluoromethyl)isoindolin-1-one] showed a pIC50 of 7.00 to 7.70. In test [1], `C[C@H]1CCCN(Cc2cc3c(c(C(F)(F)F)c2)CN(c2cc(C4(Cc5nncn5C)COC4)cc(N4CCN(C(=O)CN=[N+]=[N-])CC4)n2)C3=O)C1` [Compound 132, (S)-2-(6-(4-(2-azidoacetyl)piperazin-1-yl)-4-(3-((4-methyl-4H-1,2,4-triazol-3-yl)methyl)oxetan-3-yl)pyridin-2-yl)-6-((3-methylpiperidin-1-yl)methyl)-4-(trifluoromethyl)isoindolin-1-one] showed a pIC50 of 7.00 to 7.70. As to “(3S)-1-[6-(2,5-dioxopyrrol-1-yl)hexyl]-1-({2-[6-(ethylsulfanyl)-4-{3-[(4-methyl-1,2,4-triazol-3-yl)methyl]oxetan-3-yl}pyridin-2-yl]-3-oxo-7-(trifluoromethyl)-1H-isoindol-5-yl}methyl)-3-methylpiperidin-1-ium [Compound 209]”, in the test on Human primary T cells [2] (10 nM compound), the “CD69 10 nM” value is “C (values between 0.30 and 0.60: range “C”)”. In addition, the “CD69 100 nM” value in the test on Human primary T cells [2] (100 nM compound) was “B (values between 0.61 and 0.80: range “B;”)”. Further, the “IL-2 1 nM” value in the test on Human primary T cells [3] (1 nM compound) was “C (values between 0.10 and 0.30: range “C”)”. Besides, in the test with Human primary T cells [3] (10 nM compound), the “IL-2 10 nM” value is “C (values between 0.10 and 0.30: range “C”)”. The “IL-2 100 nM” value in the test on Human primary T cells [3] (100 nM compound) was “B (values between 0.31 and 0.79: range “B”)”. In addition, the “IFN-y 1 nM” value with Human primary T cells [4] (1 nM compound) is “C (values between 0.10 and 0.30: range “C”)”. Also, the “IFN-y 10 nM” value in the test with Human primary T cells [4] (10 nM compound) was “C (values between 0.10 and 0.30: range “C”)”. The “IFN-y 100 nM” value in the test with Human primary T cells [4] (100 nM compound) is “B (values between 0.31 and 1.00: range “B;”)”.
